In series [1] the target is T1, Serine/threonine-protein kinase 4 (Homo sapiens, UniProt Q13043).
T1 sequence (Q13043 whole entry): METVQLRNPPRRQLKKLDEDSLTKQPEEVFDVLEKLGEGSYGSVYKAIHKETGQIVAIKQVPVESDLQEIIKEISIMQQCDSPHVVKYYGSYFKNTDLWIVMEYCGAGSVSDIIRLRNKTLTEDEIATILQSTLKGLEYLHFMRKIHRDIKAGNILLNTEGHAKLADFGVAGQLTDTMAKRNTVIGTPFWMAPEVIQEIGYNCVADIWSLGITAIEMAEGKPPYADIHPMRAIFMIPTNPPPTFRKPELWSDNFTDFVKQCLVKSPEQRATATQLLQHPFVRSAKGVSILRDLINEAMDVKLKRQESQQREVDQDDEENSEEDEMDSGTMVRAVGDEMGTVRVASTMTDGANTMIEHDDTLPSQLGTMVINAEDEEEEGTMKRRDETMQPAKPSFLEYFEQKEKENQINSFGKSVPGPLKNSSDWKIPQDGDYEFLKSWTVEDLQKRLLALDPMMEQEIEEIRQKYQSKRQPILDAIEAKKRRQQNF

The next series deals with Kasumi 1. Nature of the series: Antiproliferation activity against human Kasumi 1 cells incubated for 72 hrs by celltiter-glo assay. Type of series: functional, cell-based.
Series [2] is described as follows: Tmax in C57BL/6 mouse at 10 mg/kg, ip measured upto 24 hrs by LC-MS/MS analysis. The class given is ADME, organism-based. The note with it: in vivo.
Series [3] has as its system MOLM-13. Description: Antiproliferation activity against human MOLM-13 cells incubated for 72 hrs by celltiter-glo assay. Type of series: functional, cell-based.
Series [4] concerns the target T2, Serine/threonine-protein kinase 3 (Homo sapiens, UniProt Q13188).
T2 sequence (Q13188 whole entry): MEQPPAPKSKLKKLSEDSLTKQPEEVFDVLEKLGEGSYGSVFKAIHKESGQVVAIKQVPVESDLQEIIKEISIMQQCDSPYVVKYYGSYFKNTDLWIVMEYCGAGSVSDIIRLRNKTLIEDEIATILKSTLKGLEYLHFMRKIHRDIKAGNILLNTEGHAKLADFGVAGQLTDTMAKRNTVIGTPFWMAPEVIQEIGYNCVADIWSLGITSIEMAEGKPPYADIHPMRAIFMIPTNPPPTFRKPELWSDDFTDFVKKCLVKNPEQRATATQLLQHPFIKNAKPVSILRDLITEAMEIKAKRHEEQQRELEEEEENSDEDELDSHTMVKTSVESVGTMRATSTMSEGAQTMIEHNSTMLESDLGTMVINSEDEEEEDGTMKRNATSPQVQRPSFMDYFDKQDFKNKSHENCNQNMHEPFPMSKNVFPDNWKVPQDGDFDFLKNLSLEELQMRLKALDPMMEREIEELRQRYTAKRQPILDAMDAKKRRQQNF
Description: Displacement of K5 tracer from full length C-terminal NanoLuc fused human STK3 expressed in HEK293T cells incubated for 2 hrs by NanoBRET assay

A short description of series [5]: Inhibition of MOB1 phosphorylation in human MOLM-13 cells assessed as decrease in pMOB1 activity preincubated for 4 hrs followed by H2O2 addition for 2 hrs by Western blotting analysis. Type of series: cell-based.
The target of series [6] is T2, Serine/threonine-protein kinase 3. This is another data set of the same source.
Series [7] deals with T1, Serine/threonine-protein kinase 4. This is another data set of the same source.
Description: Displacement of K5 tracer from full length C-terminal NanoLuc fused human STK4 expressed in HEK293T cells incubated for 2 hrs by NanoBRET assay
Series [8] addresses T3, Serine/threonine-protein kinase RIO3 (Homo sapiens) (UniProt O14730).
T3 sequence (whole entry): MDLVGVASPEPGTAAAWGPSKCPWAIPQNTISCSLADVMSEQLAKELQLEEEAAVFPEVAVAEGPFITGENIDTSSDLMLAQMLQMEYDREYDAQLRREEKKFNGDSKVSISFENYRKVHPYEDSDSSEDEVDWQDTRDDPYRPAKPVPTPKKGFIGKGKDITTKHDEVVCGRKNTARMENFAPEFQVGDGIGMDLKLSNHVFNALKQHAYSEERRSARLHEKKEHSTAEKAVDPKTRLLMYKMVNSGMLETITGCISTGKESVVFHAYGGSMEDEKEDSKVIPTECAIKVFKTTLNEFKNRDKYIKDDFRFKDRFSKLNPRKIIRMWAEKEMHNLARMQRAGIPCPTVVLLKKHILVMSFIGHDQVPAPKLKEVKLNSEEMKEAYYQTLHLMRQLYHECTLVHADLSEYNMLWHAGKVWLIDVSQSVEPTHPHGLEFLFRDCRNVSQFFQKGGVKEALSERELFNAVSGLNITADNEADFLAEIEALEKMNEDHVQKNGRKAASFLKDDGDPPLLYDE
Nature of the series: Inhibition of wild type full length human RIOK3 (M1 to E519 residues) expressed in bacterial expression system by KdELECT assay.

In the next series the test system is SKNO-1. Description: Antiproliferation activity against human SKNO-1 cells incubated for 72 hrs by celltiter-glo assay. The class given is functional, cell-based.
Series [9] in a line: AUC (0 to t) in C57BL/6 mouse at 10 mg/kg, ip measured upto 24 hrs by LC-MS/MS analysis. Type of series: ADME, organism-based. Also on record: dose 10 mg/kg, time <=24. The settings on record: in vivo.
In the next series the test system is THP-1. Nature of the series: Antiproliferation activity against human THP-1 cells incubated for 72 hrs by celltiter-glo assay. The class given is functional, cell-based.
A short description of series [10]: Half life in C57BL/6 mouse at 10 mg/kg, ip measured upto 24 hrs by LC-MS/MS analysis. Type of series: ADME, organism-based. The note with it: in vivo.
Series [11] addresses T4, Serine/threonine-protein kinase STK11 (Homo sapiens) (UniProt Q15831).
T4 sequence (whole entry): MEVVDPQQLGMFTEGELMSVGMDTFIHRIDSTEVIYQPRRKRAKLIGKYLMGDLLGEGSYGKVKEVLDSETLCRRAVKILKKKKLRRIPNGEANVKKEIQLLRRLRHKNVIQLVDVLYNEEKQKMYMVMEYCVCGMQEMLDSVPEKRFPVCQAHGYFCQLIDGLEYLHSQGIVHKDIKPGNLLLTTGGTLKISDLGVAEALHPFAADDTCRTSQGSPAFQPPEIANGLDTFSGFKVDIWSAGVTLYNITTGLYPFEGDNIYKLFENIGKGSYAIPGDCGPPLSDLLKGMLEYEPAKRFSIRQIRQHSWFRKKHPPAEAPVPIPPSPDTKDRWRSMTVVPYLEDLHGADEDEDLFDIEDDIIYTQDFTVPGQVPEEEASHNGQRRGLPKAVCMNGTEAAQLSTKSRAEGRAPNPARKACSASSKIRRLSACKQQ
Description: Inhibition of LKB1 (unknown origin) by NanoBRET intracellular kinase assay. The class given is cell-based. The settings on record: time 2.0 hrs.

The target of series [12] is T5, Serine/threonine-protein kinase 3 (Homo sapiens) (UniProt Q13188).
T5 sequence (whole entry): T2 sequence (Q13188 whole entry)
Nature of the series: Inhibition of STK3 (unknown origin) by KdELECT assay.

Series [13] can be described thus: Cmax in C57BL/6 mouse at 10 mg/kg, ip measured upto 24 hrs by LC-MS/MS analysis. Type of series: ADME, organism-based. Also noted: route intraperitoneal, dose 10 mg/kg, time <=24. The note with it: in vivo.
For series [14], the target named is Protein kinase C theta type (Homo sapiens) (UniProt Q04759). Nature of the series: Inhibition of wild type partial length human PRKCQ (L350 to S706 residues) expressed in bacterial expression system by KdELECT assay.
The subject of a further series is MV4-11. Description: Antiproliferation activity against human MV4-11 cells incubated for 72 hrs by celltiter-glo assay. The class given is functional, cell-based.
Another series has as its system Mus musculus. Nature of the series: In vivo inhibition of STK3/4 in C57BL/6 mouse assessed as decrease in Thr35phosphorylated-MOB1 protein level in liver at 10 mg/kg, ip administered for 1 hr by Western blotting analysis. Type of series: functional, organism-based.
Another series has as its system OCI-AML-3. Description: Antiproliferation activity against human OCI-AML-3 cells incubated for 72 hrs by celltiter-glo assay. Type of series: functional, cell-based.
Series [15] concerns the target BMP-2-inducible protein kinase (Homo sapiens) (UniProt Q9NSY1). Description: Inhibition of BMP2K (unknown origin) by NanoBRET intracellular kinase assay. The class given is cell-based. The note with it: time 2.0 hrs.
In series [16] the target is Leucine-rich repeat serine/threonine-protein kinase 2 (Homo sapiens, UniProt Q5S007). Description: Displacement of K5 tracer from full length C-terminal NanoLuc fused human LRRK2 expressed in HEK293T cells incubated for 2 hrs by NanoBRET assay. Type of series: cell-based.
Series [17] can be described thus: Drug concentration in C57BL/6 mouse plasma at 20 mg/kg, ip measured after 30 mins by LC-MS/MS analysis. The class given is ADME, organism-based.
For series [18], the system named is MOLM-13. Nature of the series: Inhibition of MOB1 phosphorylation in human MOLM-13 cells assessed as decrease in pMOB1 activity at 1 uM preincubated for 4 hrs followed by H2O2 addition for 2 hrs by Western blotting analysis. Type of series: cell-based. The settings on record: time 6.0 hrs.
Series [19] concerns the target T5, Serine/threonine-protein kinase 3 (Homo sapiens). Nature of the series: Inhibition of recombinant N-terminal His6-tagged human STK3 (18 to 311 residues) expressed in Escherichia coli assessed as melting temperature at 20 uM by thermal shift assay.
Series [20] can be described thus: Kinetic solubility of compound in PBS at pH 7.4. Type of series: physicochemical. The settings on record: buffer.
The target in series [21] is T5, Serine/threonine-protein kinase 3 (Homo sapiens). Description: Inhibition of STK3 in HEK293 cells assessed as increase in YAP/TAZ-TEAD activity at 10 uM incubated for 48 hrs by Dual-Glo luciferase assay. Type of series: cell-based.
Series [22] is described as follows: Permeability in human Caco-2 cells. Type of series: ADME, cell-based.
The nature of series [23]: Drug concentration in C57BL/6 mouse liver at 10 mg/kg, ip administered for 3 hrs. The settings on record: read-out: Ct. Type of series: ADME, organism-based.
The target in series [24] is T6, Serine/threonine-protein kinase 4 (Homo sapiens) (UniProt Q13043).
T6 sequence (whole entry): T1 sequence (Q13043 whole entry)
The settings on record: dose 20.0 µM.
Description: Inhibition of recombinant N-terminal His6-tagged human STK4 (43 to 431 residues) expressed in Escherichia coli assessed as melting temperature at 20 uM by thermal shift assay (Rvb = 55 degreeC)

The nature of series [25]: Drug concentration in C57BL/6 mouse liver at 10 mg/kg, ip administered for 2 hrs. The settings on record: read-out: Ct. Type of series: ADME, organism-based.
The nature of series [26]: Drug concentration in C57BL/6 mouse liver at 10 mg/kg, ip administered for 1 hr. The class given is ADME, organism-based. The note with it: read-out: Ct.

Calls of active or inactive are those of the source. The calls are words filed in the database; no cut-off is given here.

Chain of Leucine-rich repeat serine/threonine-protein kinase 2 (Q5S007 whole entry, the tested form may be a part): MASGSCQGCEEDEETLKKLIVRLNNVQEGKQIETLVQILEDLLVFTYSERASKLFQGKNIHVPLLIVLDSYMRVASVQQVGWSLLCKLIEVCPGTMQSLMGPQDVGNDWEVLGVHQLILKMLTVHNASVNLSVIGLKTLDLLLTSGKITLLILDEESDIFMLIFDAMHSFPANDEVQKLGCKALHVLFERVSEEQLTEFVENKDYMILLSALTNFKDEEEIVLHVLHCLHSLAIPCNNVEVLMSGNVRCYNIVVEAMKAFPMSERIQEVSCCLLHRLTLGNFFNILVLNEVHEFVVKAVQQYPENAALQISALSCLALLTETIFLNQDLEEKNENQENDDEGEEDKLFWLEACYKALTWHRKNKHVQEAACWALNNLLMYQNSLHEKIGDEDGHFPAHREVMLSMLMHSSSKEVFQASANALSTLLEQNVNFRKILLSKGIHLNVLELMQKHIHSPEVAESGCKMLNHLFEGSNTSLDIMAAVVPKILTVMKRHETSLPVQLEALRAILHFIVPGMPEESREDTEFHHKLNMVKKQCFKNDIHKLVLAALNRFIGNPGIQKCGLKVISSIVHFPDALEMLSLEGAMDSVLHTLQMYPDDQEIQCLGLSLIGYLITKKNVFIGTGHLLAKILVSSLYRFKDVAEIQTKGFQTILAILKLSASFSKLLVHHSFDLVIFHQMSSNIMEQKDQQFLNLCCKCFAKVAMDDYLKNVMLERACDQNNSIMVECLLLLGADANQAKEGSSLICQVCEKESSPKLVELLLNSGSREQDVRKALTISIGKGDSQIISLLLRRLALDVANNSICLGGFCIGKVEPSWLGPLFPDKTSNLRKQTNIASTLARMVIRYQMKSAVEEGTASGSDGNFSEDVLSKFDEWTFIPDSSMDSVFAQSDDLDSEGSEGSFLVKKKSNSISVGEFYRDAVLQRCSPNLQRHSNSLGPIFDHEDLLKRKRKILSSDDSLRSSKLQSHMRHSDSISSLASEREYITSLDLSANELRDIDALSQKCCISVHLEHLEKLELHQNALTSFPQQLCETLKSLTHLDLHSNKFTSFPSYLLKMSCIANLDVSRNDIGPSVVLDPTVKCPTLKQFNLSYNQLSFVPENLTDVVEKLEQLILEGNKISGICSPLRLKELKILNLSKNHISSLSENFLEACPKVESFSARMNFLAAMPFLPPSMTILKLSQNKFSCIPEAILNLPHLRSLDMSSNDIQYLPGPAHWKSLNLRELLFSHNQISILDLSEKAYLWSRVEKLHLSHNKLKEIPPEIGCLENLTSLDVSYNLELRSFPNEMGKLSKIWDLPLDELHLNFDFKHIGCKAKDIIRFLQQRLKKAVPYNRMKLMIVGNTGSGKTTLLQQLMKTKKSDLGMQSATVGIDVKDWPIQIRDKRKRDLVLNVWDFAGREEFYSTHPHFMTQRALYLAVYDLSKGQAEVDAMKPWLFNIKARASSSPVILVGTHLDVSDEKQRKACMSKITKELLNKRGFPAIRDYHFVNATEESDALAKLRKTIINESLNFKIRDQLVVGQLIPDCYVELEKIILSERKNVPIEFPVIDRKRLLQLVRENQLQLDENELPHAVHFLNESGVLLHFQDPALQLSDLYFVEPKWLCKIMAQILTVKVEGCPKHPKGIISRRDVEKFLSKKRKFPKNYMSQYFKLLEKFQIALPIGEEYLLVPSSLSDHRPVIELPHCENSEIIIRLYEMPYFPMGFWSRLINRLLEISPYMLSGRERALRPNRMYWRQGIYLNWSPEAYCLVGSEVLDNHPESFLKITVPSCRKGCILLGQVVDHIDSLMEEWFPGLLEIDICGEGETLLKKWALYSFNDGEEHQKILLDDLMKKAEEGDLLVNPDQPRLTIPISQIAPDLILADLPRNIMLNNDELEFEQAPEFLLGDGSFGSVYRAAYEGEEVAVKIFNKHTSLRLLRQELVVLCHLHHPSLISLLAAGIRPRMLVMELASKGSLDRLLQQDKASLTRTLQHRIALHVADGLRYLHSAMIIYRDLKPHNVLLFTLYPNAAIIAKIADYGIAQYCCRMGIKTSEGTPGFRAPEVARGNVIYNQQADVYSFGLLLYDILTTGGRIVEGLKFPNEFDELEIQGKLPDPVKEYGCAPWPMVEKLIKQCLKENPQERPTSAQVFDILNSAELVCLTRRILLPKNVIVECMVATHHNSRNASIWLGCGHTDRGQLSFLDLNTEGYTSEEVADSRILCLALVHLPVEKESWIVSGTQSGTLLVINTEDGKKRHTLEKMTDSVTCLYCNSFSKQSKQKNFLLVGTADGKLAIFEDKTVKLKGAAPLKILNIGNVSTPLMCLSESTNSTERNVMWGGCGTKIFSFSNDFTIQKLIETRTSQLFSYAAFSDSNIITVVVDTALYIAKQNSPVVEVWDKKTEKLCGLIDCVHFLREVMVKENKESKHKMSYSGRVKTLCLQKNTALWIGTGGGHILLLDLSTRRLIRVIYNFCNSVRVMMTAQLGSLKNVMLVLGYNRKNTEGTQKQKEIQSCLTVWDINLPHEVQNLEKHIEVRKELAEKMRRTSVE
Chain of BMP-2-inducible protein kinase (Homo sapiens) (Q9NSY1 whole entry, looked up, the tested form may be a part): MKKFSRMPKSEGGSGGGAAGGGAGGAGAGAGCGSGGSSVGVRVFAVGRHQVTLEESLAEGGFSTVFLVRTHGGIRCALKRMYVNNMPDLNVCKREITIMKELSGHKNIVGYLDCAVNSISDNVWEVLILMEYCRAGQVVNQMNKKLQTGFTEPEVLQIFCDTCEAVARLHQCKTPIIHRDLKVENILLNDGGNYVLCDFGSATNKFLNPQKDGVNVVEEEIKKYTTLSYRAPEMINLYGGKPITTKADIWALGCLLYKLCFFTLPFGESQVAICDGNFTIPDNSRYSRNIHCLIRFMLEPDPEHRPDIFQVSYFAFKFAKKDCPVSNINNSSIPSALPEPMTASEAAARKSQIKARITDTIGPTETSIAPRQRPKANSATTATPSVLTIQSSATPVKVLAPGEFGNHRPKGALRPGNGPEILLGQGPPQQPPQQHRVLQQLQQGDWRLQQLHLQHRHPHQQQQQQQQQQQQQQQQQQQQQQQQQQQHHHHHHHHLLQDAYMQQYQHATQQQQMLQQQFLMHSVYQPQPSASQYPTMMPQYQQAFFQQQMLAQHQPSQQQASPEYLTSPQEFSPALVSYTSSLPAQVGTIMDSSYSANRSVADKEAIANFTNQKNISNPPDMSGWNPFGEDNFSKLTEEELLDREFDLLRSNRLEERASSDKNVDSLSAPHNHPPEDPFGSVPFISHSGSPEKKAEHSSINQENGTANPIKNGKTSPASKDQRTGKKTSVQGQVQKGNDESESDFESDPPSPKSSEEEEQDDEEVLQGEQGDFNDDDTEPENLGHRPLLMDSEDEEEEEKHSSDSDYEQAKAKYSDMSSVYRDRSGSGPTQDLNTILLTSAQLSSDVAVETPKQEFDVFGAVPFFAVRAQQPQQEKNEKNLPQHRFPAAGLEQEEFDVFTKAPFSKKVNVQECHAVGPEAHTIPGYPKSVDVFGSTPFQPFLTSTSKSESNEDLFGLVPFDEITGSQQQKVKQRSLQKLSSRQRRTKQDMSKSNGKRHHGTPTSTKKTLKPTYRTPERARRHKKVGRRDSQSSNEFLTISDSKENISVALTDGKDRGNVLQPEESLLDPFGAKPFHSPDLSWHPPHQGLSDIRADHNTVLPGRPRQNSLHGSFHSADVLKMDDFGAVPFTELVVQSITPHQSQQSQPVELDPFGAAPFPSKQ
Chain of Protein kinase C theta type (Homo sapiens) (Q04759 whole entry, looked up, the tested form may be a part): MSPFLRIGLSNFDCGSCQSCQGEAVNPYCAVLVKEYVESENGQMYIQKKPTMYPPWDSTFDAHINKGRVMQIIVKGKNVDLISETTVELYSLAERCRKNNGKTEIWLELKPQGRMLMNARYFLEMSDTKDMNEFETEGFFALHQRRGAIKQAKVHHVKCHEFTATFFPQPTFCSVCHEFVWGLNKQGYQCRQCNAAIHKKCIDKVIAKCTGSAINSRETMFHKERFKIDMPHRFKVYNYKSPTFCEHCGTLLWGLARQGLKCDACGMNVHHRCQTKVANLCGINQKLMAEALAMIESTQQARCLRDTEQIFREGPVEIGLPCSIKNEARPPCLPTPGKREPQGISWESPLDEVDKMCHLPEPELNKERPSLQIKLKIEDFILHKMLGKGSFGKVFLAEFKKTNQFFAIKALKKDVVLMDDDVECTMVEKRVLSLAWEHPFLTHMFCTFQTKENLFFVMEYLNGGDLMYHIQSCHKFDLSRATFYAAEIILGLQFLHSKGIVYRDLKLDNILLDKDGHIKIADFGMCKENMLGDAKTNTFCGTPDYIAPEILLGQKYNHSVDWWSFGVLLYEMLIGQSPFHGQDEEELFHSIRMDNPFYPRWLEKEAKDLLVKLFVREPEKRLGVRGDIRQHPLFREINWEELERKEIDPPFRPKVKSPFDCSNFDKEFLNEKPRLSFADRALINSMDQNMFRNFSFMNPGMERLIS

For `CC(=O)NC1CCN(c2ncnc3[nH]cc(-c4cccc(Cl)c4)c23)CC1`, the IC50 in series [1] came to 0.026 µM; in the series on MOLM-13 [3] (MOLM-13, 72 h), 5.8 µM; in series [4], 0.139 µM; in series [5], 0.413 µM; in series [6], 0.036 µM; in series [7], 0.122 µM. In addition, the IC50 in the series on MV4-11 (MV4-11, 72 h) stood at 3.7 µM; in [16] it was 1.39 µM. Besides, the Activity result in the series on Kasumi 1, with SKNO-1, with THP-1 and with OCI-AML-3 was “Dose-Dependent Effect” throughout. Besides, the Tmax in series [2] stood at 15 min. In addition, the inhibition entry (in series [8]; in series [12]; in series [14]; in the series on Mus musculus) was “Active” in each case. In [9], the AUCt was determined as 8.1 µM·h. Besides, in series [10], the t1/2 turned out to be 318 min. Moreover, the inhibition entry in series [11] and in series [15] was “inactive” in each case. The Cmax in series [13] is 11.8 µM.
As to `OC1CCN(c2ncnc3[nH]cc(-c4cccc(Cl)c4)c23)CC1`, the IC50 amounted to 0.08 µM in series [1]; 0.433 µM in [4]; 0.127 µM in [6]; 0.25 µM in [7]; 1.34 µM in series [16]. In series [17], this compound had a concentration at 0.5 h of 11.6 µM. Further, the Activity entry in the series with Kasumi 1, in the series with MOLM-13 [3], in the series on SKNO-1, with THP-1, in the series with MV4-11 and in the series with OCI-AML-3 was “Dose-Dependent Effect” each time. Moreover, the inhibition result (in the series on MOLM-13 [18]; in series [8]; in [21]; in series [12]; in series [14]; in the series with Mus musculus) was “Active” each time. In [19], the thermal shift (ΔTm) is greater than 5.2 °C. The time of peak concentration (Tmax) in series [2] was determined as 15 min. In addition, in series [20], the Kinetic_solubility came to 189 µM. In series [9], this compound registered an AUCt of 4.3 µM·h. In series [10], this compound had a t1/2 of 594 min. In addition, the permeability result in series [22] is listed as “Permeable”. Also, the inhibition entry in series [11] and in series [15] was “inactive” throughout. This compound returned a Cmax in [13] of 5.8 µM.
For the compound `NC(=O)c1cccc(-c2c[nH]c3ncnc(N4CCOCC4)c23)c1`, the concentration at 0.5 h in [17] worked out at 15.9 µM. Also, in series [23], the concentration at 3 h worked out at 1.2 µM. Besides, in series [2], the Tmax is 30 min. In addition, the values for the IC50 in series [4], in series [6] and in series [16] were 0.303 µM, 0.233 µM and 2.36 µM, respectively. Besides, the Tm in [24] came to 63.3 °C. Besides, the concentration at 2 h in [25] was determined as 2.5 µM. The compound also gave an AUCt in series [9] of 9.5 µM·h. The inhibition entry (in series [21]; in the series on Mus musculus) was “Active” throughout. The same compound displayed a t1/2 in [10] of 42 min. In series [13], this compound displayed a Cmax of 11.9 µM. Besides, in series [26], the concentration at 1 h was 28 µM.

The record behind these values is ChEMBL document CHEMBL5042489, “Inhibitors of the Hippo Pathway Kinases STK3/MST2 and STK4/MST1 Have Utility for the Treatment of Acute Myeloid Leukemia” (J Med Chem, 2022).
